Laboratory results: patent US20090304714A1, “IKKi Inhibitor Therapies and Screening Methods, and Related IKKi Diagnostics” (The Regents of the University of Michigan, priority 2008, published 2009)

What was measured:
3T3L1 adipocytes = assay: Insulin-stimulated 2-deoxyglucose uptake in 3T3L1 adipocytes; type: cell-based, mouse; design: inhibitory effects of LPS on insulin-stimulated glucose uptake / direct effect on insulin-stimulated or basal transport: dose or concentration left out as unconfirmed
Experimental: Cell culture and transfection. 3T3-L1 fibroblasts (American Type Culture Collection) were cultured and differentiated as described previously [Reed & Lane, Proc Natl Acad Sci USA. 1980 January; 77(1):285-9, herein incorporated by reference]. Cells were routinely used within 7 days upon completion of the differentiation process, with only cultures in which >95% of cells displaying adipocyte morphology being used. CHO-IR and COS-1 cells were maintained in Dulbecco modified Eagle medium (Gibco) containing 10% foetal bovine serum. CHO-IR and 3T3-L1 cells were routinely transfected with plasmids and siRNA by electroporation as described previously (Inoue, M., et al., (2006) Mol. Biol. Cell 17, 2303, Baumann, et al., (2000) Nature 407, 202, both of which are herein incorporated by reference). Cos-1 cells were transfected using FuGene6 (Roche Diagnostics) in accordance with the manufacturer's protocol.
Glucose uptake analysis. 3T3-L1 adipocytes grown in 12-well plates were subjected to a glucose uptake assay as described previously [Van den Berghe et al., Mol Cell Biol. 1994 April; 14(4):2372-7, herein incorporated by reference] using 0.075 uCi/well 2-deoxy-D-[^14C]glucose (GE Health). Samples were counted in an LS6500 Multi-Purpose Scintillation Counter (Beckman Coulter) using BCS Biodegradable Counting Scintillant (GE Health).

[1] = molecular target: human insulin receptor Ser^1035Ala mutant (UniProt P06213)

COc1cc2ncn(-c3cc(OCc4ccccc4S(C)(=O)=O)c(C#N)s3)c2cc1OC [5-(5,6-Dimethoxy-1H-benzimidazol-1-yl)-3-[[2-(methylsulfonyl)phenyl]methoxy]-2-thiophenecarbonitrile]
direct effect on insulin-stimulated or basal transport (3T3L1 adipocytes; 3T3L1 adipocytes): little direct effect
LPS decreases in insulin stimulated glucose uptake (3T3L1 adipocytes; 3T3L1 adipocytes treated with 50 nM inhibitor prior to LPS and insulin (FIG. 6b)): prevents
inhibitory effects of LPS on insulin-stimulated glucose uptake (3T3L1 adipocytes; 3T3L1 adipocytes treated, then LPS, followed by insulin): prevented

wild-type IKKi (ectopically expressed, Example 1)
incorporation of radioactive phosphate into the receptor [1]: the Ser^1035Ala substitution blocked the incorporation of radioactive phosphate relative to the wild-type receptor when co-expressed with IKKi
